According to patent publication US20200368223A1, “METHODS FOR INHIBITING PHOSPHATE TRANSPORT” (Ardelyx, Inc., priority 2019, published 2020):
Entries after “also recorded” stand apart in the source; their conditions may differ.

Legend:
[1] = test system: adenine-induced uremic rat model; test: Adenine-induced uremic rat model; type: in vivo
Protocol: The effects of Cpd 002(were tested in an adenine-induced uremic rat model. Rats were fed a diet including 0.75% adenine and 1.2% phosphorus during the nephritis induction phase. The basal diet during the treatment phase was normal chow including 0.3% adenine and 0.6% phosphorus for 2 weeks. The rats were pair-fed the first 5 days (groups 1 and 2 to group 3, 4 days apart), and fed ad libitum afterwards. The treatment groups were as follows: vehicle, n=10; Cpd 002, 2 mg/kg/day drug-in-chow, n=10; and Cpd 002, 5 mg/kg/day drug-in-chow, n=12. Weekly measurements were taken for serum markers and kidney function.

[2] = test system: uremic rat model of CKD featuring vascular calcification; test: Rat model of uremia-associated vascular calcification (5/6th nephrectomy, calcitriol, 0.9% P diet); type: in vivo
Text: Chronic kidney disease (CKD) has multiple pathogenic mechanisms, and advanced CKD is often characterized by disordered mineral metabolism (e.g., hyperphosphatemia, hypercalcemia) and vascular calcification.

[3] = test system: dietary salt-induced, partial renal ablation model of CKD; test: Renal insufficiency with high salt feed in nephrectomized rats; type: in vivo, rat
Protocol: The effects of Cpd 002 were tested in a dietary salt-induced, partial renal ablation model of CKD.

[4] = test system: Sprague Dawley (SD) rats; test: Combination treatment with tenapanor and sevelamer in rats (urinary and renal phosphorous and sodium, BLISS model)
Protocol: A total of 48, approximately 8-week-old male Sprague Dawley (SD) rats (Envigo, Livermore, Calif.), weighing approximately 250 g on arrival, were housed 2-per cage in micro-isolator cages for a 48-hr acclimation period prior to being assigned to study groups. Animals were housed in a temperature (65-75° F.) and humidity (35-55%) controlled facility utilizing a reversed 12-hour light/dark cycle (7 AM-7 PM dark cycle). […] Body weights were recorded at study initiation and daily for the remainder of the study. Animals were maintained in accordance with the Guide for the Care and Use of Laboratory Animals (National Research Council, 2011). The study was conducted under a protocol approved by the Institutional Animal Care and Use Committee.
Rats were randomly assigned to one of eight groups (n=6/group) provided with a diet containing varying amounts of sevelamer (0-3% w/w) and were dosed by oral gavage twice daily with vehicle (0.01% Tween80) or tenapanor (0.15 mg/kg) for 11-consecutive days according to the study assignments shown in the following table.
Rats dosed orally with vehicle and provided diet without sevelamer (Group 1) served as the control group. Treatment arms included groups treated with tenapanor alone (0.15 mg/kg, bid), sevelamer alone (0.75, 1,5 or 3% w/w in chow) and the combination of tenapanor (0.15 mg/kg, bid) with each dose level of sevelamer (0.75, 1,5 or 3% w/w in chow). Animals were dosed in their home cages while pair-housed for the first five treatment days. On treatment day 6, all animals were housed individually in metabolic cages for the remainder of the study and continued to be provided ad libitum access to diet containing 0-3% sevelamer w/w and dosed twice daily with vehicle or tenapanor. Following two days acclimation to the metabolic cages, 24-hour food intake, water intake and urinary volume were measured and recorded for the final four treatment days. Urinary sodium and phosphorous concentration was measured by ion chromatography (IC). 24-hour urinary sodium and phosphorous excretion were calculated by multiplying ion concentration by 24-hour urine volume. Urinary ion excretion was also normalized to daily dietary ion intake to account for daily fluctuations in food intake.
Dosing solutions containing tenapanor (Ardelyx, Fremont Calif.) at a concentration of 0.03 mg/mL were made fresh weekly by adding the appropriate weight of tenapanor to 0.1% Tween 80 vehicle. The dose volume was 5 mL/kg for all groups.
Animals were dosed twice daily (bid) orally (po), immediately prior to lights out (7 AM) and during the middle of dark cycle (2 PM) with a standard gavage needle (38 mm, 20 G). Animals were removed from the holding or metabolic cages for dosing and then immediately returned to the cage of origin.
Urine samples were analyzed for sodium and phosphorous content on an ion chromatography system (Thermo Fisher Scientific ICS-3000 or ICS-5000+) coupled with conductivity detectors.

[5] = In vitro dissolution of CPD002 formulations; type: physicochemical; conditions: CPD002 formulations at high pH
[6] = haemodialysis patients; cited from earlier work
[7] = test system: rats; test: Urinary excretion of phosphate and calcium in rats; type: in vivo, rat; conditions: 16 hours overnight urine
Protocol: The activity of compound 002 was tested for its effects on phosphorus and calcium levels in the urine of rats. Rats were dosed according to the schedule in Table E7.
The rats were kept for 16 hours overnight (in the dark, the typical feeding period) in individual metabolic cages, and urine was collected the following morning for analysis of phosphate and calcium levels. The study design is shown WO2014169094.

[8] = early time points, Cpd 002 2 or 5 mg/kg/day drug-in-chow
[9] = week three, at the highest dose
[10] = Cpd 002 0.065 mg/g chow vs vehicle diet, listed as Cpd 002
[11] = endpoint day 27, Cpd 002 0.065 mg/g chow vs vehicle diet
[12] = endpoint, Cpd 002 0.065 mg/g chow vs vehicle diet
[13] = tenapanor 0.15 mg/kg po bid alone, four day collection period, relative to control group 1

CN1Cc2c(Cl)cc(Cl)cc2[C@H](c2cccc(S(=O)(=O)NCCOCCOCCNC(=O)NCCCCNC(=O)NCCOCCOCCNS(=O)(=O)c3cccc([C@@H]4CN(C)Cc5c(Cl)cc(Cl)cc54)c3)c2)C1 [Tenapanor, tenapanor]
serum creatinine [1, 8]: reduced | serum phosphorus [1, 8]: reduced | heart remodeling (organ weight) ([1]; week three): trend towards lesser | kidney remodeling (organ weight) ([1]; week three): trend towards lesser | heart calcification [1, 9]: trend towards reduced | kidney calcification [1, 9]: trend towards reduced | hypertrophy of the heart (endpoint heart weight) [2, 10]: lessened; also recorded: reduce | hypertrophy of the kidney remnant (endpoint kidney remnant weight) [2, 10]: lessened; also recorded: reduce | plasma FGF-23 [2, 11]: reduced | plasma creatinine [2, 11]: reduced | plasma phosphorus ([2]; endpoint day 27, Cpd 002 0.065 mg/g chow vs vehicle diet, listed as Cpd 002): reduced; also recorded: anti-hyperphosphatemic effects | calcium in the stomach (soft tissue calcification) [2, 12]: reduced | phosphorus in the stomach (soft tissue calcification) [2, 12]: reduced | plasma aldosterone levels [2, 12]: increase | vascular calcification as measured by aortic mineral content ([2]; endpoint, Cpd 002 0.065 mg/g chow vs vehicle diet, listed as Cpd 002): reduce | moribundity ([2]; treatment group vs vehicle): decreased | mortality outcome ([2]; treatment group vs vehicle): trend toward improved mortality outcome | albuminuria [3]: improved | blood pressure [3]: improved | fluid overload [3]: improved | heart hypertrophy [3]: improved | kidney hypertrophy [3]: improved | phosphorus urinary excretion [3]: significantly reduced | urinary sodium excretion ([4]; single agent, compared to vehicle control): significantly decreased | 24-hr urinary phosphorous excretion ([4]; single agent, compared to vehicle control, final four days of treatment): significantly decreased | % Reduction Urinary Phosphorous Excretion When Dosed Alone [4, 13]: 33.2% | % Reduction Urinary Sodium Excretion When Dosed Alone [4, 13]: 82.1% | urinary sodium excretion ([4]; tenapanor co-administered with all doses of sevelamer, compared to control): significantly reduced | in vitro dissolution profile [5]: slower and/or incomplete dissolution | serum phosphate levels [6]: significantly lower | urine phosphorus mass relative to the vehicle-only control ([7]; Cpd 002 0.1-3.0 mg/kg): reduced | urine phosphorus mass relative to 48 mg/kg Renvela ([7]; increasing dosages of Cpd 002): significantly reduced
